Reference: US20240400555A1 (Initial Therapeutics, Inc., priority 2023, published 2024)

tested on: HCT-116 Firefly-luciferase reporter cells; assay: Cellular c-MYC Reporter Assay; type: cell-based; settings: Homo sapiens; untitled table following Table 8a; HCT-116 Firefly-luciferase reporter cells, 24 h; read-out: pIC50 (converted)
Method in brief: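 Compound exposure lasted 24 h at 37 °C, 5% CO2, in complete McCoy's 5A medium containing 0.2% DMSO, beginning 4–6 h post-seeding (5e4 cells/mL). Firefly luciferase signal measured by luminescence after 10 min ONE-Glo development at room temperature.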

Row | SMILES | IC50
1 | O=C(O)c1ccc2c(N(C(=O)c3ccc(-n4nnc5cccnc54)cc3F)[C@@H]3CCCNC3)nccc2c1 [Example 118, (R)-1-(4-(3H-[1,2,3]triazolo[4,5-b]pyridin-3-yl)-2-fluoro-N-(piperidin-3-yl)benzamido)isoquinoline-6-carboxylic acid] | > 20000 nM
2 | COC(=O)c1ccc2ccnc(N(C(=O)c3ccc(-n4nnc5cccnc54)cc3F)[C@@H]3CCCNC3)c2c1 [Example 129, methyl (R)-1-(4-(3H-[1,2,3]triazolo[4,5-b]pyridin-3-yl)-2-fluoro-N-(piperidin-3-yl)benzamido)isoquinoline-7-carboxylate] | 339 nM
3 | O=C(c1ccc(-n2nnc3cccnc32)cc1F)N(c1ncccc1-c1cc2cnccc2s1)[C@@H]1CCCNC1 [Example 157, (R)-4-(3H-[1,2,3]triazolo[4,5-b]pyridin-3-yl)-2-fluoro-N-(piperidin-3-yl)-N-(3-(thieno[3,2-c]pyridin-2-yl)pyridin-2-yl)benzamide] | 501 nM
4 | Cc1cccc2ccnc(N(C(=O)c3ccc(-n4nnc5ccc(-c6cc[nH]n6)nc54)cc3F)[C@@H]3CCCNC3)c12 [Example 138, (R)-4-(5-(1H-pyrazol-3-yl)-3H-[1,2,3]triazolo[4,5-b]pyridin-3-yl)-2-fluoro-N-(8-methylisoquinolin-1-yl)-N-(piperidin-3-yl)benzamide] | 44.7 nM
5 | O=C(c1ccc(-n2nnc3cccnc32)cc1F)N(c1ncccc1-c1cnn(CCO)c1)[C@@H]1CCCNC1 [Example 116, (R)-4-(3H-[1,2,3]triazolo[4,5-b]pyridin-3-yl)-2-fluoro-N-(3-(1-(2-hydroxyethyl)-1H-pyrazol-4-yl)pyridin-2-yl)-N-(piperidin-3-yl)benzamide] | 2570 nM
6 | Cc1cccc2ccnc(N(C(=O)c3ccc(-c4cnn(C)c4-c4ccccc4)cc3F)[C@@H]3CCCNC3)c12 [Example 126, (R)-2-fluoro-4-(1-methyl-5-phenyl-1H-pyrazol-4-yl)-N-(8-methylisoquinolin-1-yl)-N-(piperidin-3-yl) benzamide] | 355 nM
7 | O=C(c1ccc(-n2nnc3cccnc32)cc1F)N(c1nccc2cccc(/C=C/CO)c12)[C@@H]1CCCNC1 [Example 165, (R,E)-4-(3H-[1,2,3]triazolo[4,5-b]pyridin-3-yl)-2-fluoro-N-(8-(3-hydroxyprop-1-en-1-yl)isoquinolin-1-yl)-N-(piperidin-3-yl)benzamide] | 170 nM
8 | Cc1nnc(-c2ccc(C(=O)N(c3nccc4cccc(C)c34)[C@@H]3CCCNC3)c(F)c2)s1 [Example 127, (R)-2-fluoro-4-(5-methyl-1,3,4-thiadiazol-2-yl)-N-(8-methylisoquinolin-1-yl)-N-(piperidin-3-yl) benzamide] | 339 nM
9 | Cc1cccc2ccnc(N(C(=O)c3ccc(-n4nnc5ccc(-c6ccccc6)nc54)cc3F)[C@@H]3CCCNC3)c12 [Example 171, (R)-2-fluoro-N-(8-methylisoquinolin-1-yl)-4-(5-phenyl-3H-[1,2,3]triazolo[4,5-b]pyridin-3-yl)-N-(piperidin-3-yl)benzamideamide] | 288 nM
10 | Cc1cccc2ccnc(N(C(=O)c3ccc(N)cc3F)[C@@H]3CCCNC3)c12 [Example 124, (R)-4-amino-2-fluoro-N-(8-methylisoquinolin-1-yl)-N-(piperidin-3-yl) benzamide] | 3890 nM
11 | O=C(c1ccc(-n2nnc3cccnc32)cc1F)N(c1nccc2cc(-c3cn[nH]c3)ccc12)[C@@H]1CCCNC1 [Example 106, (R)—N-(6-(1H-pyrazol-4-yl)isoquinolin-1-yl)-4-(3H-[1,2,3]triazolo[4,5-b]pyridin-3-yl)-2-fluoro-N-(piperidin-3-yl)benzamide] | 537 nM
12 | Cc1cccc2ccnc(N(C(=O)c3ccc(-c4cncc(C#N)n4)cc3F)[C@@H]3CCCNC3)c12 [Example 198, (R)-2-fluoro-N-(8-methylisoquinolin-1-yl)-4-(6-cyanopyrazin-2-yl)-N-(piperidin-3-yl)benzamide] | 617 nM
13 | Cc1cccc2ccnc(N(C(=O)c3ccc(-c4onc5ccccc45)cc3F)[C@@H]3CCCNC3)c12 [Example 196, (R)-4-(benzo[c]isoxazol-3-yl)-2-fluoro-N-(8-methylisoquinolin-1-yl)-N-(piperidin-3-yl)benzamide] | > 20000 nM
14 | C=Cc1cccc2ccnc(N(C(=O)c3ccc(-n4nnc5cccnc54)cc3F)[C@@H]3CCCNC3)c12 [Example 102, (R)-4-(3H-[1,2,3]triazolo[4,5-b]pyridin-3-yl)-2-fluoro-N-(piperidin-3-yl)-N-(8-vinylisoquinolin-1-yl)benzamide] | 46.8 nM
15 | O=C(c1ccc(-n2nnc3cccnc32)cc1F)N(c1nccc2ccc(CCCO)cc12)[C@@H]1CCCNC1 [Example 134, (R)-4-(3H-[1,2,3]triazolo[4,5-b]pyridin-3-yl)-2-fluoro-N-(7-(3 hydroxypropyl)isoquinolin-1-yl)-N-(piperidin-3-yl)benzamide] | 575 nM
16 | CNC(=O)c1ccc2nnn(-c3ccc(C(=O)N(c4nccc5cccc(C)c45)[C@@H]4CCCNC4)c(F)c3)c2n1 [Example 139, (R)-3-(3-fluoro-4-((8-methylisoquinolin-1-yl)(piperidin-3-yl)carbamoyl)phenyl)-N-methyl-3H-[1,2,3]triazolo[4,5-b]pyridine-5-carboxamide] | 170 nM
17 | CNC(=O)OCc1ccc2ccnc(N(C(=O)c3ccc(-n4nnc5cccnc54)cc3F)[C@@H]3CCCNC3)c2c1 [Example 153, (R)-(1-(4-(3H-[1,2,3]triazolo[4,5-b]pyridin-3-yl)-2-fluoro-N-(piperidin-3-yl)benzamido)isoquinolin-7-yl)methyl methylcarbamate] | 2400 nM
18 | Cn1cc(-c2ccc(C(=O)N(c3cc(-c4cc[nH]n4)ccn3)[C@@H]3CCCNC3)cc2)nn1 [Example 110, 4-(1-methyltriazol-4-yl)-N-[(3R)-3-piperidyl]-N-[4-(1H-pyrazol-3-yl)-2-pyridyl] benzamide] | > 10000 nM

Second part, the compound after the results:

Row | IC50 | SMILES
19 | 93.3 nM | COc1cccc2ccnc(N(C(=O)c3ccc(-n4nnc5cccnc54)cc3F)[C@@H]3CCCNC3)c12 [Example 222, (R)-4-(3H-[1,2,3]triazolo[4,5-b]pyridin-3-yl)-2-fluoro-N-(8-methoxyisoquinolin-1-yl)-N-(piperidin-3-yl)benzamide]
20 | 5890 nM | Cc1cccc2ccnc(N(C(=O)N3CCC(n4c(=O)ccc5ccccc54)CC3)[C@@H]3CCCNC3)c12 [Example 268, (R)—N-(8-methylisoquinolin-1-yl)-4-(2-oxoquinolin-1(2H)-yl)-N-(piperidin-3-yl)piperidine-1-carboxamide]
21 | 1200 nM | Cc1ccnc(N(C(=O)c2ccc(-n3nnc4cccnc43)cc2F)[C@@H]2CCCNC2)c1Cl [Example 284, (R)-4-(3H-[1,2,3]triazolo[4,5-b]pyridin-3-yl)-N-(3-chloro-4-methylpyridin-2-yl)-2-fluoro-N-(piperidin-3-yl)benzamide]
22 | > 20000 nM | Cc1cccc2ccnc(N(C(=O)c3ccc(-n4nnc5cccnc54)cc3)[C@@H]3CC[C@@H](C)NC3)c12 [Example 226, 4-(3H-[1,2,3]triazolo[4,5-b]pyridin-3-yl)-N-(8-methylisoquinolin-1-yl)-N-((3R,6R)-6-methylpiperidin-3-yl)benzamide]
23 | 437 nM | CCc1ccc2nnn(-c3ccc(C(=O)N(c4nccc5cccc(C)c45)[C@@H]4CCCNC4)c(F)c3)c2n1 [Example 216, (R)-4-(5-ethyl-3H-[1,2,3]triazolo[4,5-b]pyridin-3-yl)-2-fluoro-N-(8-methylisoquinolin-1-yl)-N-(piperidin-3-yl)benzamide]
24 | 5130 nM | CCOC(=O)c1cc(C2CCN(C(=O)N(c3nccc4cccc(C)c34)[C@@H]3CCCNC3)CC2)on1 [Example 279, ethyl (R)-5-(1-((8-methylisoquinolin-1-yl)(piperidin-3-yl)carbamoyl)piperidin-4-yl)isoxazole-3-carboxylate]
25 | 3980 nM | Cc1cccc2ccnc(N(C(=O)N3CCN(c4nsc5ccccc45)CC3)[C@@H]3CCCNC3)c12 [Example 264, (R)-4-(benzo[d]isothiazol-3-yl)-N-(8-methylisoquinolin-1-yl)-N-(piperidin-3-yl)piperazine-1-carboxamide]
26 | 7760 nM | Cc1cccc2ccnc(N(C(=O)N3CCC(O)(c4ccccc4OCc4ccccc4)CC3)[C@@H]3CCCNC3)c12 [Example 297, (R)-4-(2-(benzyloxy)phenyl)-4-hydroxy-N-(8-methylisoquinolin-1-yl)-N-(piperidin-3-yl)piperidine-1-carboxamide]
27 | 38 nM | Cc1cccc2ccnc(N(C(=O)c3ccc(-n4nnc5cccnc54)cc3F)[C@@H]3CCCNC3)c12 [Example 242, (R)-4-(3H-[1,2,3]triazolo[4,5-b]pyridin-3-yl)-2-fluoro-N-(8-methylisoquinolin-1-yl)-N-(piperidin-3-yl)benzamide]
28 | 1410 nM | O=C(c1ccc(-n2nnc3cccnc32)cc1F)N(c1nccc2ncccc12)[C@@H]1CCCNC1 [Example 249, (R)-4-(3H-[1,2,3]triazolo[4,5-b]pyridin-3-yl)-2-fluoro-N-(1,6-naphthyridin-5-yl)-N-(piperidin-3-yl)benzamide]
29 | 437 nM | O=C(c1ccc(Nc2ncccn2)cc1F)N(c1nccc2cccc(Cl)c12)[C@@H]1CCCNC1 [Example 272, (R)—N-(8-chloroisoquinolin-1-yl)-2-fluoro-N-(piperidin-3-yl)-4-(pyrimidin-2-ylamino)benzamide]
30 | 107 nM | Cc1cccc2ccnc(N(C(=O)c3ccc(-n4nnc5cccnc54)cn3)[C@@H]3CCCNC3)c12 [Example 244, (R)-5-(3H-[1,2,3]triazolo[4,5-b]pyridin-3-yl)-N-(8-methylisoquinolin-1-yl)-N-(piperidin-3-yl)picolinamide]
31 | 214 nM | Cc1cccc2ccnc(N(C(=O)c3ccc(-n4nnc5ccccc54)cc3)[C@@H]3CCCNC3)c12 [Example 223, (R)-4-(1H-benzo[d][1,2,3]triazol-1-yl)-N-(8-methylisoquinolin-1-yl)-N-(piperidin-3-yl)benzamide]
32 | 5500 nM | Cc1cccc2ccnc(N(C(=O)N3CCCC(C4CCC4)CC3)[C@@H]3CCCNC3)c12 (stereo partly drawn) [Example 261, 4-cyclobutyl-N-(8-methylisoquinolin-1-yl)-N—((R)-piperidin-3-yl)azepane-1-carboxamide]
